Non-standard residues stand in square brackets, D forms with d. Residues, ends and D or L forms follow the SMILES beside them. ξ: configuration not given here. *: point of attachment. Dolaproine = CO[C@@H]([C@@H]1CCCN1)[C@@H](C)C(=O)O; Dil = CC[C@H](C)[C@H](NC)[C@@H](CC(=O)O)OC; X1 = c1ccc(C[C@H](N*)c2nn[nH]n2)cc1; X2 = C[C@@H](N*)[C@@H](O)c1ccccc1; NMeV = CN[C@H](C(=O)O)C(C)C; ξNMeV = CNC(C(=O)O)C(C)C
Key:
[1] = tested on: breast carcinoma cell line H3396; assay: In vitro activity of free drugs; type: cell-based; conditions: free drug
Procedure: The cytotoxic activity of MMAZ and other compounds is evaluated on the Lewis Y positive cell lines OVCAR-3, H3396 breast carcinoma, L2987 lung carcinoma and LS174t colon carcinoma Lewis Y positive cell lines can be assayed for cytotoxicity. To evaluate the cytotoxicity of compounds, cells can be seeded at approximately 5-10,000 per well in 150 μl of culture medium then treated with graded doses of compounds in quadruplicates at the initiation of assay. Cytotoxicity assays are usually carried out for 96 hours after addition of test compounds. Fifty μl of resazurin dye may be added to each well during the last 4 to 6 hours of the incubation to assess viable cells at the end of culture. Dye reduction can be determined by fluorescence spectrometry using the excitation and emission wavelengths of 535 nm and 590 nm, respectively. For analysis, the extent of resazurin reduction by the treated cells can be compared to that of the untreated control cells.

[2] = tested on: renal cell carcinoma cell line 786-O; assay: In vitro cytotoxicity of free drugs (resazurin, 96 h); type: cell-based; conditions: free drug, read-out: IC50s (nM) 786-O
[3] = tested on: renal cell carcinoma cell line Caki-1; assay: as above; type: cell-based; conditions: free drug, read-out: IC50s (nM) Caki-1
[4] = tested on: anaplastic large cell lymphoma cell line Karpas 299; assay: as above; type: cell-based, human; conditions: free drug, read-out: IC50s (nM) Karpas 299
[5] = tested on: Hodgkin's disease cell line L540cy; assay: as above; type: cell-based; conditions: free drug, read-out: IC50s (nM) L540cy
[6] = tested on: colon carcinoma cell line HCT-116; assay: as above; type: cell-based; conditions: free drug, read-out: IC50s (nM) HCT-116
[7] = tested on: Hodgkin's disease cell line L428; assay: as above; type: cell-based; conditions: free drug, read-out: IC50s (nM) L428
[8] = tested on: CD70+ Caki-1 renal cell carcinoma cell line; assay: In vitro efficacy of antibody drug conjugates, 96 hours incubation; type: cell-based
[9] = tested on: CD30+ Karpas 299 cell line; assay: as above; type: cell-based, human; conditions: cAC10 (chimeric anti-CD30) conjugate of the named linker-drug, 4 drugs per antibody
Procedure: (§1) To evaluate the cytotoxicity of Exemplary Conjugates, cells are seeded at approximately 5-10,000 per well in 150 μl of culture medium then treated with graded doses of Exemplary Conjugates in quadruplicates at the initiation of assay. Cytotoxicity assays are carried out for 96 hours after addition of test compounds. Fifty μl of the resazurin dye is added to each well during the last 4 to 6 hours of the incubation to assess viable cells at the end of culture. Dye reduction is determined by fluorescence spectrometry using the excitation and emission wavelengths of 535 nm and 590 nm, respectively. For analysis, the extent of resazurin reduction by the treated cells is compared to that of the untreated control cells.
(§2) IC50 values are defined as the concentration where growth is reduced 50% compared with untreated control cultures. Each concentration is tested in quadruplicate. The conjugates contain 4 drugs per antibody.

[10] = tested on: CD70+ 786-O renal cell carcinoma cell line; assay: as above; type: cell-based
[11] = tested on: L428 cell line (CD70+, CD30+); assay: as above; type: cell-based
[12] = tested on: CD30+ L540cy cell line; assay: as above; type: cell-based; conditions: cAC10 (chimeric anti-CD30) conjugate of the named linker-drug, 4 drugs per antibody
Procedure: as §1, §2

Molecule | IC50 of c1F6 ADCs (ng/mL) Caki-1 [8] | IC50 of cAC10 ADCs (ng/mL) Karpas 299 [9] | IC50 of c1F6 ADCs (ng/mL) 786-O [10] | IC50 of cAC10 ADCs (ng/mL) L428 [11] | IC50 of cAC10 ADCs (ng/mL) L540cy [12] | further results
CC[C@H](C)[C@@H]([C@@H](CC(=O)N1CCC[C@H]1[C@H](OC)[C@@H](C)C(=O)N[C@@H](Cc1ccccc1)c1nn[nH]n1)OC)N(C)C(=O)[C@@H](NC(=O)C(NC)C(C)C)C(C)C (some centres unmarked) [Drug 1003] (H-[ξNMeV]V[Dil][Dolaproine]-X1) |  |  |  |  |  | IC50 ([1]; Homo sapiens): 6 nM
CC[C@H](C)[C@@H]([C@@H](CC(=O)N1CCC[C@H]1[C@H](OC)[C@@H](C)C(=O)N[C@H](C)[C@@H](O)c1ccccc1)OC)N(C)C(=O)[C@@H](NC(=O)[C@@H](NC)C(C)C)C(C)C [MMAE] (H-[NMeV]V[Dil][Dolaproine]-X2) |  |  |  |  |  | IC50 [1]: 0.7 nM
CC[C@H](C)[C@@H]([C@@H](CC(=O)N1CCC[C@H]1[C@H](OC)[C@@H](C)C(=O)N[C@@H](Cc1ccccc1)C(=O)O)OC)N(C)C(=O)[C@@H](NC(=O)[C@@H](NC)C(C)C)C(C)C [MMAF, N-methylvaline-valine-dolaisoleuine-dolaproine-phenylalanine] (H-[NMeV]V[Dil][Dolaproine]F-OH) |  |  |  |  |  | IC50 [2]: 380 nM; IC50 [3]: 234 nM; IC50 [4]: 240 nM; IC50 [5]: 130 nM; IC50 [6]: 310 nM; IC50 [7]: 58 nM; IC50 [1]: 15 nM
CO[C@@]12[C@H](COC(N)=O)C3=C(C(=O)C(C)=C(N)C3=O)N1C[C@@H]1N[C@@H]12 [Mitomycin C] |  |  |  |  |  | IC50 [2]: 32.3 nM; IC50 [3]: 14.5 nM; IC50 [4]: 105 nM; IC50 [5]: 134 nM; IC50 [6]: 166 nM; IC50 [7]: 187 nM
MaleimidocaproylNMeValValDilDapphosphonoPhe [mc-MMApF-A] | 8.9 ng/mL | 10.9 ng/mL | 3.5 ng/mL | 0.423 ng/mL | 2.7 ng/mL | 
MaleimidocaproylNMeValValDilDapphosphonoPhe [mc-MMApF-B] | >1000 ng/mL | >5000 ng/mL | >1000 ng/mL | >5000 ng/mL | >5000 ng/mL | 
MaleimidocaproylValCitp-aminobenzoyl-NMeValValDil-DapphosphonoPhe [mc-vc-PAB-MMApF] | 29.5 ng/mL |  | >1000 ng/mL |  |  | 
mc-MMAF | 47.3 ng/mL | 7.6 ng/mL | 135 ng/mL | 1.3 ng/mL | 3.4 ng/mL | 
